From ChEMBL document CHEMBL1201862, “PubChem BioAssay data set” (2004) come the findings set out here.

Each structure is given as a SMILES string.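 Growth conditions: 96-well plates. Treatment: test compound, 48 hours, 5 concentrations. Analysis: linear interpolation between bracketing concentrations; unreached endpoints set to highest concentration. GI50 is the concentration that inhibits growth by half.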 Calls of active or inactive are those of the source. Cut-off read from the data, not from the text of the source: active = GI50 up to about 1.1 µM and inactive = higher.

Among the test systems are T47D; HCT-15; LOX IMVI; A549; HCC 2998; NCI-H460; SNB-19; Hs-578T; HCT-116; PC-3; MDA-MB-231; SK-OV-3; COLO 205; HOP-92; SNB-75; ACHN; MOLT-4; OVCAR-5; A498; IGROV-1.
Common to all, as to experiment: inhibition of tumour cell growth, NCI panel, 48 h

On to `CCOC(O)C(F)(F)F` (stereo unspecified), for which the GI50 in the experiment with T47D was > 100 µM (inactive); in the experiment with HCT-15, above 100 µM; with LOX IMVI it was > 100 µM (inactive); with A549, > 100 µM (inactive); in the experiment on HCC 2998, > 100 µM (inactive); with NCI-H460, > 100 µM (inactive). For the same compound, the GI50 in the experiment with SNB-19, in the experiment with Hs-578T, in the experiment with HCT-116, with PC-3, with MDA-MB-231 and in the experiment with SK-OV-3 was > 100 µM (inactive) each time. Also, the GI50 in the experiment with COLO 205, in the experiment on HOP-92, in the experiment with SNB-75, with ACHN and in the experiment on MOLT-4 was > 100 µM (inactive) each time.

For the compound `c1ccc2c(c1)c1c(n2CCOCCCN2CCCCC2)CCCC1`, the GI50 was 17.2 µM (inactive) in the experiment on T47D; 14.2 µM in the experiment with HCT-15; 13.1 µM (inactive) with OVCAR-5; 18.4 µM (inactive) in the experiment with A549; 18 µM (inactive) with HCC 2998; 13.9 µM (inactive) in the experiment on NCI-H460. Moreover, the GI50 is 27.5 µM (inactive) in the experiment with SNB-19; 25.8 µM (inactive) in the experiment on A498; 20.1 µM (inactive) in the experiment with Hs-578T; 13.1 µM (inactive) in the experiment with PC-3; 20.5 µM (inactive) in the experiment on MDA-MB-231; 20.4 µM (inactive) in the experiment on COLO 205. Further, the GI50 with HOP-92 is 22.7 µM (inactive); with SNB-75, 16 µM (inactive); in the experiment on IGROV-1, 14.7 µM (inactive); with ACHN, 15.1 µM (inactive); in the experiment with MOLT-4 it was 4.36 µM (inactive).

Turning to `Cn1c(=O)n2n(c1=O)C(C)(C13CC4CC(CC(C4)C1)C3)C13CC4CC(CC1C4)CC23` (stereo unspecified), the GI50 with T47D is > 100 µM (inactive); in the experiment with HCT-15, above 100 µM; in the experiment with OVCAR-5 it was > 100 µM (inactive); with A549, > 100 µM (inactive); with NCI-H460, > 100 µM (inactive); in the experiment with SNB-19, > 100 µM (inactive). Moreover, the GI50 with A498, in the experiment with Hs-578T, in the experiment with PC-3, in the experiment on MDA-MB-231, in the experiment with SK-OV-3 and in the experiment on COLO 205 was > 100 µM (inactive) each time. Besides, the GI50 is > 100 µM (inactive) with HOP-92; > 100 µM (inactive) in the experiment on SNB-75; > 100 µM (inactive) with IGROV-1; > 100 µM (inactive) in the experiment on ACHN; 89.9 µM (inactive) in the experiment on MOLT-4.

On to `CN(C)c1cccc2c1C(=O)C=CC21CCc2ccc(N(C)C)c3c(N(C)C)ccc1c23` (stereo unspecified), for which the GI50 in the experiment with T47D was 66.4 µM (inactive); in the experiment with OVCAR-5, 19.1 µM (inactive); with LOX IMVI, 15.1 µM (inactive); with A549, 18.1 µM (inactive); in the experiment with NCI-H460, 9.04 µM (inactive); with SNB-19, 15.2 µM (inactive). The GI50 in the experiment with A498 is 4.47 µM (inactive); in the experiment on Hs-578T it was 17.4 µM (inactive); in the experiment with HCT-116 it was 10.9 µM (inactive); in the experiment with PC-3, 11.6 µM (inactive); in the experiment with MDA-MB-231 it was 13.6 µM (inactive); in the experiment on SK-OV-3 it was 10.1 µM (inactive). Besides, the GI50 was 15.1 µM (inactive) in the experiment with COLO 205; 12.3 µM (inactive) in the experiment on HOP-92; 4.8 µM (inactive) in the experiment with SNB-75; 13.4 µM (inactive) with IGROV-1; 13.4 µM (inactive) in the experiment on ACHN; 12 µM (inactive) in the experiment with MOLT-4.

As to `COC(=O)C(NC(=O)OC(C)(C)C)P(=O)(OC)OC` (stereo unspecified), the GI50 in the experiment with T47D was > 100 µM (inactive); in the experiment with HCT-15, above 100 µM; in the experiment on OVCAR-5 it was > 100 µM (inactive); in the experiment with LOX IMVI, > 100 µM (inactive); with A549 it was > 100 µM (inactive); in the experiment with SNB-19 it was > 100 µM (inactive). In addition, the GI50 with A498, in the experiment with Hs-578T, in the experiment with HCT-116, in the experiment with PC-3, in the experiment with MDA-MB-231 and in the experiment with SK-OV-3 was > 100 µM (inactive) throughout. Further, the GI50 in the experiment with COLO 205, in the experiment on HOP-92, with IGROV-1, in the experiment with ACHN and in the experiment with MOLT-4 was > 100 µM (inactive) in each case.

In the case of `COc1ccc(C2C3CCc4ccccc4C3=NN2S(=O)(=O)c2cccc(C(=O)O)c2OC)cc1` (stereo unspecified), the GI50 in the experiment on T47D was 4.83 µM (inactive); in the experiment on HCT-15 it was 0.24 µM; with OVCAR-5, 92.9 µM (inactive); with LOX IMVI, 12.7 µM (inactive); in the experiment on A549, 10.1 µM (inactive); with NCI-H460, 5.66 µM (inactive). Moreover, the GI50 was 25.4 µM (inactive) with SNB-19; 10.3 µM (inactive) in the experiment on HCT-116; 9.02 µM (inactive) with PC-3; 10.4 µM (inactive) in the experiment on MDA-MB-231; 1.8 µM (inactive) with SK-OV-3; 1.84 µM (inactive) with COLO 205. In addition, the GI50 is 15.7 µM (inactive) in the experiment on HOP-92, 1.09 µM (active) in the experiment with IGROV-1, 7.83 µM (inactive) in the experiment on ACHN and 9.02 µM (inactive) with MOLT-4.

Turning to `CC(C)CC1c2[nH]c3ccccc3c2C[C@H]2C(=O)NC(COC(C)(C)C)C(=O)N12` (stereo partly specified), the GI50 was 13.2 µM (inactive) in the experiment with T47D; 26.9 µM in the experiment on HCT-15; 23.6 µM (inactive) in the experiment on OVCAR-5; 17.3 µM (inactive) in the experiment on LOX IMVI; 31.9 µM (inactive) with A549; 33.9 µM (inactive) in the experiment on SNB-19. Moreover, the GI50 in the experiment with A498 is 30.3 µM (inactive); in the experiment on Hs-578T, 13.3 µM (inactive); with HCT-116 it was 18.6 µM (inactive); in the experiment on PC-3, 22 µM (inactive); in the experiment on MDA-MB-231, 18.7 µM (inactive); in the experiment on SK-OV-3, > 100 µM (inactive). The GI50 is 20.4 µM (inactive) with COLO 205; 31.8 µM (inactive) in the experiment with HOP-92; 23.3 µM (inactive) in the experiment with IGROV-1; 26.8 µM (inactive) with ACHN; 22.2 µM (inactive) in the experiment on MOLT-4.

Consider `C[N+](C)(C)/C=N\c1cccc2c1CCCC2`, for which the GI50 in the experiment with T47D was 69.3 µM (inactive); in the experiment on HCT-15, above 100 µM; in the experiment with OVCAR-5, > 100 µM (inactive); in the experiment with LOX IMVI it was 55.3 µM (inactive); with A549 it was 72.9 µM (inactive); in the experiment with SNB-19, > 100 µM (inactive). For the same compound, the GI50 was > 100 µM (inactive) with A498; > 100 µM (inactive) in the experiment on Hs-578T; > 100 µM (inactive) in the experiment with HCT-116; 39.8 µM (inactive) in the experiment on PC-3; > 100 µM (inactive) in the experiment with MDA-MB-231; > 100 µM (inactive) with SK-OV-3. For the same compound, the GI50 in the experiment on COLO 205 is 43.4 µM (inactive); with HOP-92, 17.7 µM (inactive); with SNB-75 it was 56.5 µM (inactive); in the experiment with IGROV-1, 75.3 µM (inactive); with ACHN, > 100 µM (inactive); in the experiment on MOLT-4 it was > 100 µM (inactive).

Take `N#Cc1c(-c2ccccc2)c(CN2CCCCC2)c(=O)n2c1[nH]c1ccccc12`: the GI50 is 40.9 µM (inactive) with T47D; 32.6 µM with HCT-15; 34.9 µM (inactive) in the experiment on OVCAR-5; 20.7 µM (inactive) with LOX IMVI; 26.7 µM (inactive) with A549; 53.8 µM (inactive) with HCC 2998. Besides, the GI50 in the experiment on NCI-H460 was 25.9 µM (inactive); in the experiment with SNB-19 it was 25.9 µM (inactive); in the experiment with A498, 30.4 µM (inactive); in the experiment on HCT-116 it was 16.6 µM (inactive); with PC-3, 34.9 µM (inactive); in the experiment with MDA-MB-231 it was 43.5 µM (inactive). The GI50 with SK-OV-3 was 71 µM (inactive); in the experiment on COLO 205, 25.6 µM (inactive); in the experiment on SNB-75 it was 81.1 µM (inactive); with IGROV-1, 19.5 µM (inactive); in the experiment on ACHN it was 33.7 µM (inactive); with MOLT-4, 0.0764 µM (active).

For the compound `Cc1cc2nc3c(C(O)CO)nn(-c4ccccc4)c3nc2cc1C` (stereo unspecified), the GI50 was 11.5 µM (inactive) in the experiment with T47D; 14.9 µM with HCT-15; 22.3 µM (inactive) in the experiment on OVCAR-5; 20.5 µM (inactive) in the experiment on LOX IMVI; 12.9 µM (inactive) in the experiment with A549; 12.7 µM (inactive) in the experiment on NCI-H460. Further, the GI50 with SNB-19 was 22.9 µM (inactive); in the experiment with A498, 12.1 µM (inactive); in the experiment with Hs-578T, 31.6 µM (inactive); with HCT-116 it was 15.3 µM (inactive); in the experiment with PC-3, 14.4 µM (inactive); with MDA-MB-231, 22.1 µM (inactive). For the same compound, the GI50 in the experiment on HOP-92 was 15.5 µM (inactive); in the experiment on SNB-75, 22.4 µM (inactive); in the experiment on IGROV-1 it was 17.3 µM (inactive); with ACHN it was 14.4 µM (inactive); in the experiment on MOLT-4, 4.3 µM (inactive).

On to `O=C1CCCC2=C1CC1=C(CCCC1=O)N2c1cccc([N+](=O)[O-])c1`, for which the GI50 was above 100 µM in the experiment with HCT-15; > 100 µM (inactive) in the experiment on OVCAR-5; > 100 µM (inactive) with LOX IMVI; > 100 µM (inactive) with A549; > 100 µM (inactive) in the experiment on HCC 2998; > 100 µM (inactive) in the experiment with NCI-H460. The GI50 in the experiment on SNB-19, in the experiment on A498, in the experiment on Hs-578T, in the experiment with PC-3, with SK-OV-3 and in the experiment with SNB-75 was > 100 µM (inactive) in each case. For the same compound, the GI50 with IGROV-1, in the experiment with ACHN and in the experiment with MOLT-4 was > 100 µM (inactive) each time.

Consider `COC1CC(C)(NC(=O)C(F)(F)F)C2OC(c3ccccc3)OCC2O1` (stereo unspecified), for which the GI50 in the experiment with T47D was > 100 µM (inactive); with HCT-15, above 100 µM; with OVCAR-5 it was > 100 µM (inactive); in the experiment on LOX IMVI it was > 100 µM (inactive); in the experiment on A549 it was > 100 µM (inactive); with NCI-H460, > 100 µM (inactive). The GI50 in the experiment on SNB-19, with A498, in the experiment on Hs-578T, with HCT-116, in the experiment with PC-3 and in the experiment with MDA-MB-231 was > 100 µM (inactive) each time. The GI50 in the experiment on SK-OV-3, in the experiment on COLO 205, in the experiment with HOP-92, with SNB-75, in the experiment with IGROV-1 and with ACHN was > 100 µM (inactive) each time. In addition, the GI50 in the experiment on MOLT-4 was 47.3 µM (inactive).
